The values that follow come from US20090082337A1, “Compositions Comprising Quinolone and Methods for Treating or Controlling Infections” (priority 2007, published 2009).

Converted amounts (≈) assume the structure as drawn.

For one data set, the system named is Pseudomonas aeruginosa. Description: In vitro anti-bacterial activity (MIC90), ophthalmologic clinical bacteria isolates. The class given is cell-based. Particulars: Gram-negative.
In a further data set the test system is Haemophilus influenzae. The description is as above. The class given is cell-based. Conditions: Gram-negative.
For a further data set, the system named is Staphylococcus aureus. The data set is described as above. The format is cell-based. Conditions: Gram-positive.
Data set [1] has as its system P. aeruginosa (ATCC 27853). Description: MICs of compound having Formula IV and ciprofloxacin alone and in combination. Particulars: Pseudomonas aeruginosa, ATCC27853, alone, read-out: MIC, drug alone. The format is cell-based. As to the method: (§1) Compositions having various combinations of concentrations of compound having Formula IV and cirprofloxacin were tested systematically against S. aureus, P. aeruginosa, and E. coli.

A further data set relates to S. aureus (ATCC 29213). Described as above. The format is cell-based. Particulars: Staphylococcus aureus, ATCC29213, alone, read-out: MIC, drug alone. How it is done:
as §1

The test system of a further data set is E. coli (ATCC 25922). The description is as above. The format is cell-based. Conditions: Escherichia coli, ATCC25922, alone, read-out: MIC, drug alone. How it is done: as §1
For data set [2], the system named is Gentamycin-resistant Staphylococcus aureus. The experiment in a line: In vitro anti-bacterial activity (MIC90), ophthalmologic clinical bacteria isolates. The class given is cell-based. Conditions: antibiotic-resistant organisms.
The next data set has as its system Propionibacterium acnes. The data set is described as above. The format is cell-based. Particulars: Cutibacterium acnes, Gram-positive.
In a further data set the test system is Corynebacterium species. The description is as above. The class given is cell-based. Conditions: Gram-positive. An excerpt: As disclosed above, most of these bacteria strains are also relevant to infections of the ear and upper respiratory tract.
For a further data set, the system named is Streptococcus pneumoniae. The description is as above. The class given is cell-based. Conditions: Gram-positive.
The subject of data set [3] is Coagulase-negative Staphylococcus. The data set is described as above. The class given is cell-based. Particulars: Gram-positive.
The test system of data set [4] is Gentamycin-resistant Pseudomonas aeruginosa. The data set is described as above. The class given is cell-based. Conditions: antibiotic-resistant organisms.
In the next data set the test system is Moraxella species. The description is as above. Particulars: Gram-negative. The format is cell-based.
The subject of data set [5] is Penicillin-resistant Streptococcus pneumoniae. Described as above. The format is cell-based. Particulars: antibiotic-resistant organisms.
In data set [6] the test system is Propionibacterium acnes (ATCC 11828). Description: In vitro anti-bacterial activity (MIC90), anaerobic bacteria. The class given is cell-based. Particulars: Cutibacterium acnes, ATCC11828, anaerobic reference bacteria.
The nature of data set [7]: Stability of the compound having Formula IV in solution. The format is physicochemical. Conditions: for remaining amount of the compound in solution: initial concentration 100 μg/ml. An excerpt: The stability of the compound having Formula IV in solution is shown in Table 7, as the remaining amount (expressed as the percentage of the initial amount) of the compound after selected times. The compound is stable in the pH range of most interest for the present invention.

Data set [8] concerns Sarcina lutea (ATCC 9341). Description: In vitro anti-bacterial activity (MIC90), Gram-positive bacteria. The format is cell-based. Conditions: Micrococcus luteus, ATCC9341, Gram-positive reference strain. How it is done: (§2) In yet another aspect, said another quinolone has a MIC90 value for a Gram-negative bacterium that is lower than that of the fluoroquinolone having Formula I, II, III, IV, V, VI, VII, or VIII for the same bacterium, said fluoroquinolone being included in the composition. MIC90 is the minimum concentration of the active compound required to inhibit ninety percent of the growth of a specified pathogen, in μg/ml. Anti-bacterial activity of the compound having Formula […] was tested against several Gram-positive reference bacteria strains and compared to the anti-bacterial activity of three commercially available antibiotics (nadifloxacin, ofloxacin, and sparfloxacin).

Data set [9] deals with Staphylococcus aureus (ATCC 25933). Described as above. The format is cell-based. Particulars: ATCC25933, Gram-positive reference strain. As to the method: as §2
Data set [10] has as its system Staphylococcus aureus (Smith). The description is as above. The class given is cell-based. Conditions: Gram-positive reference strain. How it is done:
as §2

The subject of data set [11] is Streptococcus pyogenes (IID 698). Described as above. The class given is cell-based. Conditions: IID698, Gram-positive reference strain. As to the method: as §2
The subject of data set [12] is Staphylococcus aureus (FDA 209P). Described as above. The format is cell-based. Particulars: FDA209P, Gram-positive reference strain. As to the method:
as §2

The subject of data set [13] is Streptococcus pneniae (IID 554). The description is as above. The class given is cell-based. Particulars: IID554, Gram-positive reference strain. As to the method: as §2
Data set [14] concerns Staphylococcus epidermidis (ATCC 12228). The description is as above. The class given is cell-based. Particulars: ATCC12228, Gram-positive reference strain. As to the method:
as §2

The test system of data set [15] is Streptococcus pneumoniae (IID 553). The description is as above. The class given is cell-based. Particulars: IID553, Gram-positive reference strain. As to the method: as §2
Data set [16] relates to Streptococcus faecalis (IFO 12964). Described as above. The format is cell-based. Conditions: Enterococcus faecalis, IFO12964, Gram-positive reference strain. How it is done: as §2
For data set [17], the system named is Streptococcus faecalis (ATCC 29212). Described as above. The class given is cell-based. Conditions: Enterococcus faecalis, ATCC29212, Gram-positive reference strain. As to the method: as §2
In data set [18] the test system is Ofloxacin-resistant Staphylococcus aureus. The experiment in a line: In vitro anti-bacterial activity (MIC90), ophthalmologic clinical bacteria isolates. Particulars: antibiotic-resistant organisms. The format is cell-based.

Broadly, the MIC is the lowest concentration found to suppress growth. For `N[C@@H]1CCCCN(c2c(F)cc3c(=O)c(C(=O)O)cn(C4CC4)c3c2Cl)C1` [Compound Having Formula IV], the MIC90 against Pseudomonas aeruginosa is 4 µg/mL; in the data set with Haemophilus influenzae, at most 0.06 µg/mL; against Staphylococcus aureus it was 1 µg/mL; in [2] it was 4 µg/mL; with Propionibacterium acnes, 0.25 µg/mL; in the data set with Corynebacterium species it was 2 µg/mL. Moreover, the MIC90 with Streptococcus pneumoniae is 0.13 µg/mL; in [3], 0.5 µg/mL; in data set [4], 32 µg/mL; against Moraxella species, 0.13 µg/mL; in data set [5], 0.13 µg/mL; in data set [6] it was 0.39 µg/mL. Moreover, the MIC90 in [8] came to 0.1 µg/mL; in data set [9], 0.05 µg/mL; in data set [10] it was 0.006 µg/mL; in data set [11] it was 0.1 µg/mL; in data set [12], 0.012 µg/mL; in data set [13], 0.2 µg/mL. Further, the MIC90 in data set [14] came out at 0.05 µg/mL; in data set [15], 0.1 µg/mL; in data set [16], 0.1 µg/mL; in data set [17], 0.2 µg/mL; in data set [18], 8 µg/mL. Besides, the results for the MIC (in [1]; with S. aureus (ATCC 29213); with E. coli (ATCC 25922)) were 4 µg/mL, 0.03 µg/mL and 0.12 µg/mL, respectively. The “remaining amount of the compound in solution” value (“remaining amount” for short) in data set [7] (pH 3.5, 0 week) is on record as 100 percentage of the initial amount; in data set [7] (pH 3.5, 2 weeks), 99.0 percentage of the initial amount; in data set [7] (pH 3.5, 4 weeks), 98.8 percentage of the initial amount; in data set [7] (pH 4.0, 0 week), 100 percentage of the initial amount; in [7] (pH 4.0, 2 weeks) it was 98.5 percentage of the initial amount; in data set [7] (pH 4.0, 4 weeks), 98.4 percentage of the initial amount. The “remaining amount” value in data set [7] (pH 4.5, 0 week) is listed as 100 percentage of the initial amount; in [7] (pH 4.5, 2 weeks) it was 98.4 percentage of the initial amount; in [7] (pH 4.5, 4 weeks), 98.4 percentage of the initial amount; in data set [7] (pH 5.0, 0 week), 100 percentage of the initial amount; in data set [7] (pH 5.0, 2 weeks), 98.2 percentage of the initial amount; in [7] (pH 5.0, 4 weeks), 98.8 percentage of the initial amount. Moreover, the “remaining amount” value in [7] (pH 5.5, 0 week) is on record as 100 percentage of the initial amount; in data set [7] (pH 5.5, 2 weeks) it was 96.8 percentage of the initial amount; in data set [7] (pH 5.5, 4 weeks) it was 96.8 percentage of the initial amount; in [7] (pH 6.0, 0 week), 100 percentage of the initial amount; in [7] (pH 6.0, 2 weeks), 96.3 percentage of the initial amount; in data set [7] (pH 6.0, 4 weeks), 98.0 percentage of the initial amount. The “remaining amount” value is recorded as 100 percentage of the initial amount in data set [7] (pH 6.5, 0 week); 95.3 percentage of the initial amount in data set [7] (pH 6.5, 2 weeks); 95.6 percentage of the initial amount in data set [7] (pH 6.5, 4 weeks). The “stability in solution (in words)” value in [7] (pH range of most interest for the present invention) is reported as “stable”.

Take `CC1CCc2c(N3CCC(O)CC3)c(F)cc3c(=O)c(C(=O)O)cn1c23` (stereo not drawn) [Nadifloxacin, nadifloxacin]: the MIC90 in data set [6] was 0.78 µg/mL (≈ 2.16 µM); in [8], 0.39 µg/mL (≈ 1.08 µM); in data set [9], 0.05 µg/mL (≈ 0.139 µM); in data set [10], 0.024 µg/mL (≈ 0.0666 µM); in [11], 0.1 µg/mL (≈ 0.277 µM); in data set [12] it was 0.024 µg/mL (≈ 0.0666 µM). The MIC90 was found to be 0.78 µg/mL (≈ 2.16 µM) in data set [13]; 0.1 µg/mL (≈ 0.277 µM) in data set [14]; 0.78 µg/mL (≈ 2.16 µM) in [15]; 0.78 µg/mL (≈ 2.16 µM) in data set [16]; 0.78 µg/mL (≈ 2.16 µM) in data set [17].

With `CC1COc2c(N3CCN(C)CC3)c(F)cc3c(=O)c(C(=O)O)cn1c23` (stereo not drawn) [Ofloxacin, ofloxacin], the MIC90 in the data set on Pseudomonas aeruginosa is 4 µg/mL (≈ 11.1 µM); in the data set on Haemophilus influenzae, at most 0.06 µg/mL; in the data set with Staphylococcus aureus, 32 µg/mL (≈ 88.6 µM); in [2] it was 128 µg/mL (≈ 354 µM); in the data set with Propionibacterium acnes it was 1 µg/mL (≈ 2.77 µM); in the data set with Corynebacterium species it was 32 µg/mL (≈ 88.6 µM). The MIC90 with Streptococcus pneumoniae amounted to 2 µg/mL (≈ 5.53 µM); in data set [3], 8 µg/mL (≈ 22.1 µM); in data set [4], 64 µg/mL (≈ 177 µM); in the data set with Moraxella species, 0.13 µg/mL (≈ 0.36 µM); in [5], 2 µg/mL (≈ 5.53 µM); in [6] it was 1.56 µg/mL (≈ 4.32 µM). Further, the MIC90 in [8] stood at 3.13 µg/mL (≈ 8.66 µM); in [9], 0.39 µg/mL (≈ 1.08 µM); in data set [10] it was 0.2 µg/mL (≈ 0.553 µM); in [11], 0.39 µg/mL (≈ 1.08 µM); in [12] it was 0.2 µg/mL (≈ 0.553 µM); in [13], 1.56 µg/mL (≈ 4.32 µM). Moreover, the MIC90 in data set [14] was 0.78 µg/mL (≈ 2.16 µM); in [15], 1.56 µg/mL (≈ 4.32 µM); in data set [16], 1.56 µg/mL (≈ 4.32 µM); in data set [17], 1.56 µg/mL (≈ 4.32 µM); in data set [18], over 128 µg/mL.

On to `C[C@@H]1CN(c2c(F)c(N)c3c(=O)c(C(=O)O)cn(C4CC4)c3c2F)C[C@H](C)N1` [Sparfloxacin, sparfloxacin], for which the MIC90 is 0.78 µg/mL (≈ 1.99 µM) in [6]; 1.56 µg/mL (≈ 3.98 µM) in data set [8]; 0.1 µg/mL (≈ 0.255 µM) in [9]; 0.05 µg/mL (≈ 0.127 µM) in [10]; 0.2 µg/mL (≈ 0.51 µM) in data set [11]; 0.024 µg/mL (≈ 0.0612 µM) in [12]. Besides, the MIC90 was determined as 0.39 µg/mL (≈ 0.994 µM) in data set [13]; 0.2 µg/mL (≈ 0.51 µM) in data set [14]; 0.39 µg/mL (≈ 0.994 µM) in data set [15]; 0.78 µg/mL (≈ 1.99 µM) in data set [16]; 0.39 µg/mL (≈ 0.994 µM) in data set [17].
